Converted amounts (≈) assume the structure as drawn. Each block holds one compound with its values, some of them ahead of it.
Assays:
Format in all cases: cell-based
E. coli [1] = assay: drop test activity screening; note: key: Y = antibacterial activity; N = No antibacterial activity
Source text: (§1) The ability of each of the compounds of the invention to impact bacterial growth and viability has been tested. This has been undertaken using a novel drop-test method for initial activity screening, as well as using conventional growth curve analysis methodology. This novel class of antimicrobial agent has shown bactericidal activity against Gram +ve (e.g. S. aureus, Bacillus megaterium) and bacteriostatic activity against Gram −ve isolates (e.g. E. coli).
(§2) The compounds were screened initially by drop testing methods and then by growth rate methods as it was identified that drop testing methods could give false negatives.

S. aureus [2] = assay: drop test activity screening; note: key: Y = antibacterial activity; N = No antibacterial activity
Source text: as §1, §2

E. coli [3] = assay: growth rate (growth curve) activity screening; conditions: first E. coli growth column, phase not given
Source text: as §1, §2

S. aureus [4] = assay: growth rate (growth curve) activity screening; conditions: for Grow Rates activity S. aureus: phase not given; for Grow Rates activity S. aureus Log: log phase bacterial growth
Source text: as §1, §2

E. coli [5] = assay: Calculated MIC50 and MIC100 values
Source text: (§3) The present inventors have determined MIC50 values, in the nM-μM range, for lead compounds, against clinical S. aureus isolates (e.g. MRSA) and E. coli in both log and stationary phases.

S. aureus [6] = assay: Calculated MIC50 and MIC100 values; conditions: for MIC50 Staph Log / MIC100 Staph Log: log phase; for MIC50 Staph Stat / MIC100 Staph Stat: stationary phase
Source text: as §3

Structure (SMILES): O=C(NCS(=O)(=O)O)Nc1ccc(C(F)(F)F)cc1 [Compound 1]
- drop test activity E. coli (E. coli [1]): N
- drop test activity S. aureus (S. aureus [2]): Y
- Grow Rates activity E. coli (E. coli [3]): Y
- Grow Rates activity S. aureus (S. aureus [4]): Y
- Grow Rates activity S. aureus Log (S. aureus [4]): Y
- MIC50 Coli Stat (E. coli [5]; stationary phase): 412.0789 mg/L (≈ 1380 µM)
- MIC100 Coli Stat (E. coli [5]; stationary phase): 421.0559 mg/L (≈ 1410 µM)
- MIC50 Staph Log (S. aureus [6]): 7.35 μg/mL
- MIC100 Staph Log (S. aureus [6]): 29.41 μg/mL
- MIC50 Staph Stat (S. aureus [6]): 209.132 mg/L (≈ 701 µM)
- MIC100 Staph Stat (S. aureus [6]): 254.5639 mg/L (≈ 854 µM)

- MIC50 Staph Log (S. aureus [6]): 54.13 μg/mL
- MIC100 Staph Log (S. aureus [6]): 93.55 μg/mL
Structure (SMILES): O=S(=O)(O)CNC(=S)Nc1ccc(C(F)(F)F)cc1 [Compound 2]
- drop test activity E. coli (E. coli [1]): N
- drop test activity S. aureus (S. aureus [2]): Y
- Grow Rates activity E. coli (E. coli [3]): Y
- Grow Rates activity S. aureus Log (S. aureus [4]): Y

Structure (SMILES): O=C(NCCS(=O)(=O)O)Nc1ccc(C(F)(F)F)cc1 [Compound 3]
- drop test activity E. coli (E. coli [1]): N
- drop test activity S. aureus (S. aureus [2]): N

Structure (SMILES): O=S(=O)(O)CCNC(=S)Nc1ccc(C(F)(F)F)cc1 [Compound 4]
- drop test activity E. coli (E. coli [1]): N
- drop test activity S. aureus (S. aureus [2]): Y

Structure (SMILES): O=C(NCCCS(=O)(=O)O)Nc1ccc(C(F)(F)F)cc1 [Compound 5]
- drop test activity E. coli (E. coli [1]): N
- drop test activity S. aureus (S. aureus [2]): N

Structure (SMILES): O=S(=O)(O)CCCNC(=S)Nc1ccc(C(F)(F)F)cc1 [Compound 6]
- drop test activity E. coli (E. coli [1]): N
- drop test activity S. aureus (S. aureus [2]): Y

Structure (SMILES): O=C(NCS(=O)(=O)O)Nc1ccc(C(F)(F)F)cc1 [Compound 31]
- drop test activity E. coli (E. coli [1]): N
- drop test activity S. aureus (S. aureus [2]): Y
- Grow Rates activity S. aureus Log (S. aureus [4]): Y
- MIC50 Staph Log (S. aureus [6]): 21.6 μg/mL
- MIC100 Staph Log (S. aureus [6]): 22.68 μg/mL
- MIC50 Staph Stat (S. aureus [6]): 14.79 mg/L (≈ 49.6 µM)
- MIC100 Staph Stat (S. aureus [6]): 14.84 mg/L (≈ 49.8 µM)

Structure (SMILES): O=C(NCS(=O)(=O)O)Nc1ccc(C(F)(F)F)cc1 [Compound 32]
- drop test activity E. coli (E. coli [1]): N
- drop test activity S. aureus (S. aureus [2]): Y
- Grow Rates activity S. aureus Log (S. aureus [4]): Y
- MIC50 Staph Log (S. aureus [6]): 19.14 μg/mL
- MIC100 Staph Log (S. aureus [6]): 20.08 μg/mL
- MIC50 Staph Stat (S. aureus [6]): 39.4 mg/L (≈ 132 µM)
- MIC100 Staph Stat (S. aureus [6]): 57 mg/L (≈ 191 µM)

Structure (SMILES): O=C(NCS(=O)(=O)O)Nc1ccc(C(F)(F)F)cc1 [Compound 33]
- drop test activity E. coli (E. coli [1]): N
- drop test activity S. aureus (S. aureus [2]): Y
- Grow Rates activity S. aureus Log (S. aureus [4]): Y
- MIC50 Staph Log (S. aureus [6]): 0.45 μg/mL
- MIC100 Staph Log (S. aureus [6]): 2.971 μg/mL
- MIC50 Staph Stat (S. aureus [6]): 5.579 mg/L (≈ 18.7 µM)
- MIC100 Staph Stat (S. aureus [6]): 7.304 mg/L (≈ 24.5 µM)

Structure (SMILES): O=C(NCS(=O)(=O)O)Nc1ccc(C(F)(F)F)cc1 [Compound 34]
- drop test activity E. coli (E. coli [1]): N
- drop test activity S. aureus (S. aureus [2]): Y
- Grow Rates activity E. coli (E. coli [3]): Y
- Grow Rates activity S. aureus Log (S. aureus [4]): Y
- MIC50 Staph Log (S. aureus [6]): 146.6192 μg/mL

Structure (SMILES): O=C(NCS(=O)(=O)O)Nc1ccc(C(F)(F)F)cc1 [Compound 37]
- drop test activity E. coli (E. coli [1]): N
- drop test activity S. aureus (S. aureus [2]): Y
- Grow Rates activity S. aureus Log (S. aureus [4]): Y
- MIC50 (E. coli [5]; Escherichia coli, stationary phase, read-out: MIC50 Coli Stat): 451 mg/L (≈ 1510 µM)
- MIC (E. coli [5]; Escherichia coli, stationary phase, read-out: MIC100 Coli Stat): 480 mg/L (≈ 1610 µM)
- MIC50 Coli Log (E. coli [5]; log phase): 236.9979 μg/mL
- MIC100 Coli Log (E. coli [5]; log phase): 505.6726 μg/mL
- MIC50 Staph Log (S. aureus [6]): 29.08 μg/mL
- MIC100 Staph Log (S. aureus [6]): 30.35 μg/mL
- MIC50 Staph Stat (S. aureus [6]): 464.1399 mg/L (≈ 1560 µM)
- MIC100 Staph Stat (S. aureus [6]): 559.1301 mg/L (≈ 1870 µM)

Structure (SMILES): O=C(NCS(=O)(=O)O)Nc1ccc([N+](=O)[O-])cc1 [Compound 38]
- drop test activity E. coli (E. coli [1]): N
- drop test activity S. aureus (S. aureus [2]): Y
- Grow Rates activity E. coli (E. coli [3]): Y
- Grow Rates activity S. aureus Log (S. aureus [4]): Y

Structure (SMILES): COc1ccc(NC(=O)NCS(=O)(=O)O)cc1 [Compound 39]
- drop test activity E. coli (E. coli [1]): N
- drop test activity S. aureus (S. aureus [2]): N

Structure (SMILES): O=C(NCS(=O)(=O)O)Nc1ccccc1 [Compound 40]
- drop test activity E. coli (E. coli [1]): N
- drop test activity S. aureus (S. aureus [2]): N

Structure (SMILES): O=C(NCS(=O)(=O)[O-])Nc1ccc(C(F)(F)F)cc1.[Na+] [Compound 41]
- drop test activity E. coli (E. coli [1]): N
- drop test activity S. aureus (S. aureus [2]): Y

Structure (SMILES): O=C(NCS(=O)(=O)[O-])Nc1ccc(C(F)(F)F)cc1.[K+] [Compound 42]
- drop test activity E. coli (E. coli [1]): N
- drop test activity S. aureus (S. aureus [2]): N

Structure (SMILES): O=S(=O)(O)CNC(=S)Nc1cc(C(F)(F)F)cc(C(F)(F)F)c1 [Compound 43]
- drop test activity E. coli (E. coli [1]): N
- drop test activity S. aureus (S. aureus [2]): Y
- Grow Rates activity E. coli (E. coli [3]): Y
- Grow Rates activity S. aureus Log (S. aureus [4]): Y

Structure (SMILES): O=C(NCS(=O)(=O)O)Nc1cc(C(F)(F)F)cc(C(F)(F)F)c1 [Compound 44]
- drop test activity E. coli (E. coli [1]): N
- drop test activity S. aureus (S. aureus [2]): Y

Structure (SMILES): O=C(NCS(=O)(=O)O)Nc1cccc2ccccc12 [Compound 45]
- drop test activity E. coli (E. coli [1]): N
- drop test activity S. aureus (S. aureus [2]): N

Structure (SMILES): CCCCNC(=O)NCS(=O)(=O)O [Compound 46, reference compound]
- drop test activity E. coli (E. coli [1]): N
- drop test activity S. aureus (S. aureus [2]): N

Structure (SMILES): CCCCNC(=S)NCS(=O)(=O)O [Compound 47, reference compound]
- drop test activity E. coli (E. coli [1]): N
- drop test activity S. aureus (S. aureus [2]): N

Structure (SMILES): CCCCNC(=O)NCCS(=O)(=O)O [Compound 48, reference compound]
- drop test activity E. coli (E. coli [1]): N
- drop test activity S. aureus (S. aureus [2]): N

Structure (SMILES): CCCCNC(=S)NCCS(=O)(=O)O [Compound 49, reference compound]
- drop test activity E. coli (E. coli [1]): N
- drop test activity S. aureus (S. aureus [2]): N

Structure (SMILES): CCCCNC(=O)NCCCS(=O)(=O)O [Compound 50, reference compound]
- drop test activity E. coli (E. coli [1]): N
- drop test activity S. aureus (S. aureus [2]): N

Structure (SMILES): CCCCNC(=S)NCCCS(=O)(=O)O [Compound 51, reference compound]
- drop test activity E. coli (E. coli [1]): N
- drop test activity S. aureus (S. aureus [2]): N

- MIC50 Staph Log (S. aureus [6]): 330.0044 μg/mL
Structure (SMILES): O=C(NCS(=O)(=O)O)Nc1ccc2cc3ccccc3cc2c1 [Compound 52]
- drop test activity E. coli (E. coli [1]): N
- drop test activity S. aureus (S. aureus [2]): N
- Grow Rates activity E. coli (E. coli [3]): Y
- Grow Rates activity S. aureus Log (S. aureus [4]): Y

- MIC50 Staph Log (S. aureus [6]): 21.11 μg/mL
Structure (SMILES): Cc1ccc2sc(-c3ccc(NC(=O)NCS(=O)(=O)O)cc3)nc2c1 [Compound 53]
- drop test activity E. coli (E. coli [1]): N
- drop test activity S. aureus (S. aureus [2]): Y
- Grow Rates activity E. coli (E. coli [3]): Y
- Grow Rates activity S. aureus Log (S. aureus [4]): Y

Structure (SMILES): O=C(NCS(=O)(=O)O)Nc1ccccc1-c1nc2ccccc2s1 [Compound 54]
- drop test activity E. coli (E. coli [1]): N
- drop test activity S. aureus (S. aureus [2]): N

Structure (SMILES): O=S(=O)(O)CNC(=S)Nc1ccc(C(F)(F)F)cc1 [Compound 61]
- drop test activity E. coli (E. coli [1]): N
- drop test activity S. aureus (S. aureus [2]): N
- Grow Rates activity S. aureus Log (S. aureus [4]): Y

Structure (SMILES): O=S(=O)(O)CNC(=S)Nc1ccc(C(F)(F)F)cc1 [Compound 62]
- drop test activity E. coli (E. coli [1]): N
- drop test activity S. aureus (S. aureus [2]): N
- Grow Rates activity S. aureus Log (S. aureus [4]): Y

Structure (SMILES): O=S(=O)(O)CNC(=S)Nc1ccc(C(F)(F)F)cc1 [Compound 63]
- drop test activity E. coli (E. coli [1]): N
- drop test activity S. aureus (S. aureus [2]): N

Structure (SMILES): O=C(NCS(=O)(=O)O)Nc1c(F)c(F)c(F)c(F)c1F [Compound 65]
- drop test activity E. coli (E. coli [1]): N
- drop test activity S. aureus (S. aureus [2]): N

- MIC50 Staph Log (S. aureus [6]): 370.0761 μg/mL
Structure (SMILES): O=C(NCS(=O)(=O)O)Nc1ccc(Cc2ccc(NC(=O)NCS(=O)(=O)O)cc2)cc1 [Compound 68]
- drop test activity E. coli (E. coli [1]): N
- drop test activity S. aureus (S. aureus [2]): Y
- Grow Rates activity S. aureus Log (S. aureus [4]): Y

Structure (SMILES): O=C(NCS(=O)(=O)O)Nc1nc2ccccc2s1 [Compound 71]
- drop test activity E. coli (E. coli [1]): N
- drop test activity S. aureus (S. aureus [2]): N
- Grow Rates activity S. aureus (S. aureus [4]): N
- Grow Rates activity S. aureus Log (S. aureus [4]): Y

Structure (SMILES): Cc1ccc2nc(NC(=O)NCS(=O)(=O)O)sc2c1 [Compound 72]
- drop test activity E. coli (E. coli [1]): N
- drop test activity S. aureus (S. aureus [2]): N
- Grow Rates activity S. aureus (S. aureus [4]): Y
- Grow Rates activity S. aureus Log (S. aureus [4]): N

Structure (SMILES): Nc1ccc(NC(=O)NCS(=O)(=O)O)cc1 [Compound 74]
- drop test activity E. coli (E. coli [1]): N
- drop test activity S. aureus (S. aureus [2]): N
- Grow Rates activity S. aureus Log (S. aureus [4]): Y
